In experiment [1] the test system is SARS-CoV2 (Omicron). The experiment can be described thus: SARS-CoV2 antiviral cellular activity assay in A549:hACE2 cells. The experiment is classed as cell-based. The following applies: Severe acute respiratory syndrome coronavirus 2, 48 h; read-out: Antiviral cellular EC50 range (Omicron).
The target in experiment [2] is SARS-CoV-2 PLpro (Severe acute respiratory syndrome coronavirus 2 (2019-nCoV) (SARS-CoV-2), UniProt P0DTD1). The experiment can be described thus: PLpro enzymatic inhibition assay (IC50 value determination). The experiment is classed as biochemical. The following applies: 60 min preincubation for covalent inhibitors, 10 min for non-covalent, read-out: Inhibition of SARS-CoV-2 PLpro IC50 range.

SMILES strings stand for the structures.

Regarding `C#CCNC(=O)CNC(=O)CN(C1CCN([C@H](C)c2cccc3ccccc23)CC1)S(=O)(=O)C1CC1` [Compound 60, (R)-2-(N-(1-(1-(naphthalen-1-yl)ethyl)piperidin-4-yl)cyclopropanesulfonamido)-N-(2-oxo-2-(prop-2-yn-1-ylamino)ethyl)acetamide], in experiment [1], the EC50 was below 100 nM. In experiment [2], the IC50 is below 100 nM. With `C#CCNC(=O)CNC(=O)CN(CCC(C)=O)C1CCN([C@H](C)c2cccc3ccccc23)CC1` [Compound 79, (R)-2-((1-(1-(naphthalen-1-yl)ethyl)piperidin-4-yl)(3-oxobutyl)amino)-N-(2-oxo-2-(prop-2-yn-1-ylamino)ethyl)acetamide], the EC50 in experiment [1] lay within 100 to 1000 nM. The IC50 in experiment [2] is below 100 nM. Turning to `C#CCNC(=O)CNC(=O)CN(C1CCN([C@H](C)c2cccc3ccccc23)CC1)S(C)(=O)=O` [Compound 21, (R)-2-(N-(1-(1-(naphthalen-1-yl)ethyl)piperidin-4-yl)methylsulfonamido)-N-(2-oxo-2-(prop-2-yn-1-ylamino)ethyl)acetamide], the EC50 in experiment [1] was below 100 nM. The 50% inhibitory concentration (IC50) in experiment [2] was below 100 nM. With `C#CCNC(=O)CNC(=O)CN(C1CCN([C@H](C)c2cccc3ccccc23)CC1)S(=O)(=O)C(F)(F)F` [Compound 80, (R)—N-(2-oxo-2-(prop-2-yn-1-ylamino)ethyl)-2-((1,1,1-trifluoro-N-(1-(1-(naphthalen-1-yl)ethyl)piperidin-4-yl)methyl)sulfonamido)acetamide], in experiment [1], the EC50 lay in the range of 100 to 1000 nM. Further, the IC50 in experiment [2] was below 100 nM.

Regarding `C#CCNC(=O)CNC(=O)CN(C1CCN(C(C)c2ccc(F)c3ccccc23)CC1)S(C)(=O)=O` (stereo not drawn) [Compound 107], the 50% effective concentration (EC50) in experiment [1] lay within 100 to 1000 nM. In experiment [2], the IC50 was below 100 nM. Consider `C#CCNC(=O)CNC(=O)CN(C1CCN([C@H](C)c2cccc3ccccc23)CC1)S(=O)(=O)N1CCCC1` [Compound 65, (R)-2-(N-(1-(1-(naphthalen-1-yl)ethyl)piperidin-4-yl)pyrrolidine-1-sulfonamido)-N-(2-oxo-2-(prop-2-yn-1-ylamino)ethyl)acetamide], for which the EC50 in experiment [1] was below 100 nM. Besides, the IC50 in experiment [2] was below 100 nM. As to `C#CCNC(=O)CNC(=O)CN(C1CCN(C(C)c2cccc(-c3cccs3)c2)CC1)S(C)(=O)=O` (stereo not drawn) [Compound 141, N-(2-oxo-2-(prop-2-yn-1-ylamino)ethyl)-2-(N-(1-(1-(3-(thiophen-2-yl)phenyl)ethyl)piperidin-4-yl)methylsulfonamido)acetamide], the IC50 in experiment [2] is 100 to 1000 nM. On to `C#CCCNC(=O)CNC(=O)CN(C1CCN(C(C)c2cccc3ccccc23)CC1)S(C)(=O)=O` (stereo not drawn) [Compound 157, N-(but-3-yn-1-yl)-2-(2-(N-(1-(1-(naphthalen-1-yl)ethyl)piperidin-4-yl)methylsulfonamido)acetamido)acetamide], for which the IC50 in experiment [2] lay in the range of 100 to 1000 nM. As for `COC(=O)/C=C/CNC(=O)CNC(=O)CN(C(=O)C1CCCCC1)C1CCN([C@H](C)c2cccc3ccccc23)CC1` [Compound 11, methyl (R,E)-4-(2-(2-(N-(1-(1-(naphthalen-1-yl)ethyl)piperidin-4-yl)cyclohexanecarboxamido)acetamido)acetamido)but-2-enoate], the IC50 in experiment [2] was in the range of 100 to 1000 nM. `COC(=O)/C=C/CNC(=O)CNC(=O)CNC1CCN([C@H](C)c2cccc3ccccc23)CC1` [Compound 24, methyl (R,E)-4-(2-(2-((1-(1-(naphthalen-1-yl)ethyl)piperidin-4-yl)amino)acetamido)acetamido)but-2-enoate]: in experiment [2], the IC50 is 100 to 1000 nM. As for `C#CCNC(=O)CNC(=O)[C@@H]1CNS(=O)(=O)N1C1CCN([C@H](C)c2cccc3ccccc23)CC1` [Compound 92, (S)-2-(1-((R)-1-(naphthalen-1-yl)ethyl)piperidin-4-yl)-N-(2-oxo-2-(prop-2-yn-1-ylamino)ethyl)-1,2,5-thiadiazolidine-3-carboxamide 1,1-dioxide 2,2,2-trifluoroacetate], in experiment [2], the IC50 was in the range of 1000 to 10000 nM. Still for that read-out and setting: the figure for `COC(=O)/C(C#N)=C/CNC(=O)CNC(=O)CN(C1CCN(C(C)c2cccc3ccccc23)CC1)S(C)(=O)=O` (stereo not drawn) [Compound 162, methyl (E)-2-cyano-4-(2-(2-(N-(1-(1-(naphthalen-1-yl)ethyl)piperidin-4-yl)methylsulfonamido)acetamido)acetamido)but-2-enoate] is 100 to 1000 nM; for `COC(=O)/C=C/CNC(=O)CNC(=O)CN(/C=C/C(=O)C(F)(F)F)C1CCN([C@H](C)c2cccc3ccccc23)CC1` [Compound 67, methyl (E)-4-(2-(2-((1-((R)-1-(naphthalen-1-yl)ethyl)piperidin-4-yl)((E)-4,4,4-trifluoro-3-oxobut-1-en-1-yl)amino)acetamido)acetamido)but-2-enoate] it is below 100 nM.

With `COC(=O)/C=C/CNC(=O)CNC(=O)CN(C(=O)C(F)(F)F)C1CCN([C@H](C)c2cccc3ccccc23)CC1` [Compound 14, methyl (R,E)-4-(2-(2-(2,2,2-trifluoro-N-(1-(1-(naphthalen-1-yl)ethyl)piperidin-4-yl)acetamido)acetamido)acetamido)but-2-enoate], the IC50 in experiment [2] lay within 100 to 1000 nM. `COC(=O)/C=C/CNC(=O)CNC(=O)CN(C(C)=O)C1CCN(C(C)c2cccc3ccccc23)CC1` (stereo not drawn) [Compound 13, methyl (E)-4-(2-(2-(N-(1-(1-(naphthalen-1-yl)ethyl)piperidin-4-yl)acetamido)acetamido)acetamido)but-2-enoate]: in experiment [2], the IC50 was below 100 nM.

As for `C#CCNC(=O)CNC(=O)CN(C1CCN(C(C)c2ccccc2Cl)CC1)S(C)(=O)=O` (stereo not drawn) [Compound 101, 2-(N-(1-(1-(2-chlorophenyl)ethyl)piperidin-4-yl)methylsulfonamido)-N-(2-oxo-2-(prop-2-yn-1-ylamino)ethyl)acetamide], in experiment [2], the IC50 was below 100 nM. Consider `C#CCNC(=O)CNC(=O)CN(C1CCN(c2nc3ccccc3s2)CC1)S(C)(=O)=O` [Compound 119, 2-(N-(1-(benzo[d]thiazol-2-yl)piperidin-4-yl)methylsulfonamido)-N-(2-oxo-2-(prop-2-yn-1-ylamino)ethyl)acetamide], for which the IC50 in experiment [2] is 100 to 1000 nM. As to `C#CCNC(=O)CNC(=O)CN(C(=O)CCC(=O)O)C1CCN(C(C)c2cccc3ccccc23)CC1` (stereo not drawn) [Compound 118, 4-((1-(1-(naphthalen-1-yl)ethyl)piperidin-4-yl)(2-oxo-2-((2-oxo-2-(prop-2-yn-1-ylamino)ethyl)amino)ethyl)amino)-4-oxobutanoic acid], the IC50 in experiment [2] was 1000 to 10000 nM. Consider `COC(=O)/C=C/CNC(=O)CNC(=O)CN(C1CCN([C@H](C)c2cccc3ccccc23)CC1)S(=O)(=O)NC(=O)OC(C)(C)C` [Compound 23, methyl (R,E)-4-(2-(2-((N-(tert-butoxycarbonyl)sulfamoyl)(1-(1-(naphthalen-1-yl)ethyl)piperidin-4-yl)amino)acetamido)acetamido)but-2-enoate], for which the IC50 in experiment [2] was in the range of 100 to 1000 nM.

Consider `C#CCNC(=O)CNC(=O)CN(C1CCN([C@H](C)c2cccc3ccccc23)CC1)S(=O)(=O)N1CCC(C(N)=O)C1` (stereo partly drawn) [Compound 137, 1-(N-(1-((R)-1-(naphthalen-1-yl)ethyl)piperidin-4-yl)-N-(2-oxo-2-((2-oxo-2-(prop-2-yn-1-ylamino)ethyl)amino)ethyl)sulfamoyl)pyrrolidine-3-carboxamide], for which, in experiment [2], the IC50 is below 100 nM. The same measure, in the same setting: the figure for `COC(=O)/C=C/CNC(=O)CNC(=O)CN(C(=O)CC(C)C)C1CCN([C@H](C)c2cccc3ccccc23)CC1` [Compound 19, methyl (R,E)-4-(2-(2-(3-methyl-N-(1-(1-(naphthalen-1-yl)ethyl)piperidin-4-yl)butanamido)acetamido)acetamido)but-2-enoate] is below 100 nM. For the molecule `COC(=O)/C=C/CNC(=O)CNC(=O)CN(C1CCN([C@H](C)c2cccc3ccccc23)CC1)S(C)(=O)=O` [Compound 20, methyl (R,E)-4-(2-(2-(N-(1-(1-(naphthalen-1-yl)ethyl)piperidin-4-yl)methylsulfonamido)acetamido)acetamido)but-2-enoate], the EC50 in experiment [1] was below 100 nM. The IC50 in experiment [2] is below 100 nM. With `C#CCNC(=O)CNC(=O)CN(C1CCN(C(C)c2ccc(OC)c(Cl)c2)CC1)S(C)(=O)=O` (stereo not drawn) [Compound 121, 2-(N-(1-(1-(3-chloro-4-methoxyphenyl)ethyl)piperidin-4-yl)methylsulfonamido)-N-(2-oxo-2-(prop-2-yn-1-ylamino)ethyl)acetamide], in experiment [2], the IC50 is below 100 nM. As to `C#CCNC(=O)CNC(=O)CN(C1CCN([C@H](C)c2cccc3ccccc23)CC1)S(=O)(=O)c1ccccc1` [Compound 63, (R)-2-(N-(1-(1-(naphthalen-1-yl)ethyl)piperidin-4-yl)phenylsulfonamido)-N-(2-oxo-2-(prop-2-yn-1-ylamino)ethyl)acetamide], the EC50 in experiment [1] is below 100 nM. The IC50 in experiment [2] was below 100 nM. Turning to `C[C@H](c1cccc2ccccc12)N1CCC(N(CC(=O)NCC(=O)NCC=O)S(C)(=O)=O)CC1` [Compound 64, (R)-2-(N-(1-(1-(naphthalen-1-yl)ethyl)piperidin-4-yl)methylsulfonamido)-N-(2-oxo-2-((2-oxoethyl)amino)ethyl)acetamide], the IC50 in experiment [2] was below 100 nM.
